Reference: ChEMBL document CHEMBL1126960 (J Med Chem, 1993)

Assays:
Rattus norvegicus [1] = species: Rattus norvegicus
Description: Effect of compound (2 mg/kg ip) on the concentration of 5-HT in rat mesolimbic region

Rattus norvegicus [2] = species: Rattus norvegicus; conditions: Striatum
Description: Effect of compound (2 mg/kg ip) on the concentration of DA in rat striatum

Rattus norvegicus [3] = species: Rattus norvegicus; conditions: Frontal cortex
Description: Effect of compound (2 mg/kg ip) on the concentration of DOPAC/DA in rat frontal cortex

D(3) dopamine receptor = D(3) dopamine receptor (Homo sapiens, UniProt P35462); experiment: biochemical
Description: Displacement of [3H]-spiperone from CHO-K1 cell membranes expressing human dopamine 3 receptors

Rattus norvegicus [4] = species: Rattus norvegicus; remark: listed apart in the source
Description: Effect of compound (2 mg/kg ip) on the concentration of DA in rat mesolimbic region

Rattus norvegicus [5] = species: Rattus norvegicus; conditions: Striatum; remark: listed apart in the source
Description: Effect of compound (2 mg/kg ip) on the concentration of DOPAC/DA in rat striatum

Rattus norvegicus [6] = species: Rattus norvegicus; conditions: Frontal cortex; remark: listed apart in the source
Description: Effect of compound (2 mg/kg ip) on the concentration of 5-HIAA in rat frontal cortex

Sigma 2 receptor [7] = experiment: Tested for [3H]DTG binding to sigma-2 receptor in NG108-15 membrane; assay type: cell membranes
Rattus norvegicus [8] = species: Rattus norvegicus; conditions: Striatum; remark: listed apart in the source
Description: Effect of compound (2 mg/kg ip) on the concentration of 5-HT in rat striatum

Rattus norvegicus [9] = species: Rattus norvegicus; conditions: Striatum; remark: listed apart in the source
Description: Effect of compound (2 mg/kg ip) on the concentration of DOPAC in rat striatum

Rattus norvegicus [10] = species: Rattus norvegicus; conditions: Frontal cortex; remark: listed apart in the source
Description: Effect of compound (2 mg/kg ip) on the concentration of HVA in rat frontal cortex

Rattus norvegicus [11] = species: Rattus norvegicus; conditions: Frontal cortex; remark: listed apart in the source
Description: Effect of compound (2 mg/kg ip) on the concentration of DA in rat frontal cortex

Rattus norvegicus [12] = species: Rattus norvegicus; conditions: Frontal cortex; remark: listed apart in the source
Description: Effect of compound (2 mg/kg ip) on the concentration of DOPAC in rat frontal cortex

Rattus norvegicus [13] = species: Rattus norvegicus; remark: listed apart in the source
Description: Effect of compound (2 mg/kg ip) on the concentration of DOPAC/DA in rat mesolimbic region

Rattus norvegicus [14] = species: Rattus norvegicus; conditions: Striatum; remark: listed apart in the source
Description: Effect of compound (2 mg/kg ip) on the concentration of 5-HIAA in rat striatum

Rattus norvegicus [15] = species: Rattus norvegicus; conditions: Frontal cortex; remark: listed apart in the source
Description: Effect of compound (2 mg/kg ip) on the concentration of 5-HT in rat frontal cortex

Rattus norvegicus [16] = species: Rattus norvegicus; remark: listed apart in the source
Description: Effect of compound (2 mg/kg ip) on the concentration of HVA in rat mesolimbic region

Rattus norvegicus [17] = species: Rattus norvegicus; remark: listed apart in the source
Description: Effect of compound (2 mg/kg ip) on the concentration of 5-HIAA in rat mesolimbic region

Rattus norvegicus [18] = species: Rattus norvegicus; conditions: Striatum; remark: listed apart in the source
Description: Effect of compound (2 mg/kg ip) on the concentration of HVA in rat striatum

Rattus norvegicus [19] = species: Rattus norvegicus; remark: listed apart in the source
Description: Effect of compound (2 mg/kg ip) on the concentration of DOPAC in rat mesolimbic region

Sigma 2 receptor [20] = experiment: Tested for [3H]DTG binding to sigma-2 receptor in NG108-15 cell membranes
D(2) dopamine receptor = D(2) dopamine receptor (Homo sapiens, UniProt P14416); experiment: biochemical
D(2) dopamine receptor, sequence (P14416 whole entry): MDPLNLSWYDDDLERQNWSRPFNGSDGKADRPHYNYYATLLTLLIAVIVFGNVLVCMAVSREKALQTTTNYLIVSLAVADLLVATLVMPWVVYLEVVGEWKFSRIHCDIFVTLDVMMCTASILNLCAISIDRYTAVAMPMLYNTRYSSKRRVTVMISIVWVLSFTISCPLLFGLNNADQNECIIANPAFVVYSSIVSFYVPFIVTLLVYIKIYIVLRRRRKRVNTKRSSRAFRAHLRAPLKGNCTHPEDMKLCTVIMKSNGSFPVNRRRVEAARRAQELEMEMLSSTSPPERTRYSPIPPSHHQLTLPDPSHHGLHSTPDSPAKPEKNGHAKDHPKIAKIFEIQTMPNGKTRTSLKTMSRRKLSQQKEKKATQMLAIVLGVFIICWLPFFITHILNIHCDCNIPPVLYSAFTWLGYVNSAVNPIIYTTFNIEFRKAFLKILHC
Description: Displacement of [3H]spiperone from CHO-K1 cell membranes expressing human dopamine receptor D2

Rattus norvegicus [21] = species: Rattus norvegicus; conditions: Frontal cortex; remark: listed apart in the source
Description: Effect of compound on (0.2 mg/kg ip) the concentration of 5-HT in rat frontal cortex

Rattus norvegicus [22] = species: Rattus norvegicus; conditions: Frontal cortex; remark: listed apart in the source
Description: Effect of compound (0.2 mg/kg ip) on the concentration of DOPAC in rat frontal cortex

Rattus norvegicus [23] = species: Rattus norvegicus; remark: listed apart in the source
Description: Effect of compound (0.2 mg/kg ip) on the concentration of DOPAC/DA in rat mesolimbic region

Rattus norvegicus [24] = species: Rattus norvegicus; conditions: Striatum; remark: listed apart in the source
Description: Effect of compound (0.2 mg/kg ip) on the concentration of DOPAC in rat striatum

Rattus norvegicus [25] = species: Rattus norvegicus; remark: listed apart in the source
Description: Effect of compound (0.2 mg/kg ip) on the concentration of HVA in rat mesolimbic region

Rattus norvegicus [26] = species: Rattus norvegicus; conditions: Striatum; remark: listed apart in the source
Description: Effect of compound (0.2 mg/kg ip) on the concentration of 5-HIAA in rat striatum

Rattus norvegicus [27] = species: Rattus norvegicus; conditions: Striatum; remark: listed apart in the source
Description: Effect of compound (0.2 mg/kg ip) on the concentration of HVA in rat striatum

Rattus norvegicus [28] = species: Rattus norvegicus; remark: listed apart in the source
Description: Effect of compound on (0.2 mg/kg ip) the concentration of 5-HIAA in rat mesolimbic region

Rattus norvegicus [29] = species: Rattus norvegicus; conditions: Frontal cortex; remark: listed apart in the source
Description: Effect of compound on (0.2 mg/kg ip) the concentration of DOPAC/DA in rat frontal cortex

Rattus norvegicus [30] = species: Rattus norvegicus; conditions: Striatum; remark: listed apart in the source
Description: Effect of compound (0.2 mg/kg ip) on the concentration of 5-HT in rat striatum

Rattus norvegicus [31] = species: Rattus norvegicus; remark: listed apart in the source
Description: Effect of compound (0.2 mg/kg ip) on the concentration of DOPAC in rat mesolimbic region

Rattus norvegicus [32] = species: Rattus norvegicus; conditions: Striatum; remark: listed apart in the source
Description: Effect of compound (0.2 mg/kg ip) on the concentration of DA in rat striatum

Rattus norvegicus [33] = species: Rattus norvegicus; conditions: Frontal cortex; remark: listed apart in the source
Description: Effect of compound (0.2 mg/kg ip) on the concentration of HVA in rat frontal cortex

Rattus norvegicus [34] = species: Rattus norvegicus; conditions: Frontal cortex; remark: listed apart in the source
Description: Effect of compound on (0.2 mg/kg ip) the concentration of 5-HIAA in rat frontal cortex

Rattus norvegicus [35] = species: Rattus norvegicus; conditions: Frontal cortex; remark: listed apart in the source
Description: Effect of compound (0.2 mg/kg ip) on the concentration of DA in rat frontal cortex

Rattus norvegicus [36] = species: Rattus norvegicus; remark: listed apart in the source
Description: Effect of compound on (0.2 mg/kg ip) the concentration of 5-HT in rat mesolimbic region

Rattus norvegicus [37] = species: Rattus norvegicus; conditions: Striatum; remark: listed apart in the source
Description: Effect of compound (0.2 mg/kg ip) on the concentration of DOPAC/DA in rat striatum

Rattus norvegicus [38] = species: Rattus norvegicus; remark: listed apart in the source
Description: Effect of compound (0.2 mg/kg ip) on the concentration of DA in rat mesolimbic region

D(3) dopamine receptor, sequence (P35462 whole entry): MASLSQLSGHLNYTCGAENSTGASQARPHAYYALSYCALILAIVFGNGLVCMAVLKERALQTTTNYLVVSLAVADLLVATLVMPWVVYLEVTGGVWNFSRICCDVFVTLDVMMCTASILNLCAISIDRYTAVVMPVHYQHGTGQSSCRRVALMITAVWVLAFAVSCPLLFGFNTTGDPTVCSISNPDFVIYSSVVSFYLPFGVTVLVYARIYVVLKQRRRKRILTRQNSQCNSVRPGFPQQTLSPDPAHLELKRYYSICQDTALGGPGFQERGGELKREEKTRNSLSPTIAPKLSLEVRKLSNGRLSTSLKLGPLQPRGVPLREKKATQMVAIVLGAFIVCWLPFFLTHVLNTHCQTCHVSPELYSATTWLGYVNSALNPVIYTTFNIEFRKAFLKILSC

O[C@@H](CCCN1CCC(O)(c2ccc(Cl)cc2)CC1)c1ccc(F)cc1
Concentration (ng (g of tissue)-1) (Rattus norvegicus [1]): 639 | Concentration (ng (g of tissue)-1) (Rattus norvegicus [2]): 5230 | Concentration (ng (g of tissue)-1) (Rattus norvegicus [3]): 1.7 | Ki (D(3) dopamine receptor): 330 nM | Concentration (ng (g of tissue)-1) (Rattus norvegicus [4]): 2230 | Concentration (ng (g of tissue)-1) (Rattus norvegicus [5]): 0.523 | Concentration (ng (g of tissue)-1) (Rattus norvegicus [6]): 156 | Ki (Sigma 2 receptor [7]): 8.2 nM | Concentration (ng (g of tissue)-1) (Rattus norvegicus [8]): 367 | Concentration (ng (g of tissue)-1) (Rattus norvegicus [9]): 2740 | Concentration (ng (g of tissue)-1) (Rattus norvegicus [10]): 80 | Concentration (ng (g of tissue)-1) (Rattus norvegicus [11]): 19 | Concentration (ng (g of tissue)-1) (Rattus norvegicus [12]): 32 | Concentration (ng (g of tissue)-1) (Rattus norvegicus [13]): 0.588 | Concentration (ng (g of tissue)-1) (Rattus norvegicus [14]): 437 | Concentration (ng (g of tissue)-1) (Rattus norvegicus [15]): 165 | Concentration (ng (g of tissue)-1) (Rattus norvegicus [16]): 788 | Concentration (ng (g of tissue)-1) (Rattus norvegicus [17]): 527 | Concentration (ng (g of tissue)-1) (Rattus norvegicus [18]): 1980 | Concentration (ng (g of tissue)-1) (Rattus norvegicus [19]): 1310

O[C@H](CCCN1CCN(c2ncc(F)cn2)CC1)c1ccc(F)cc1
Ki (Sigma 2 receptor [20]): 1240 nM | Ki (D(3) dopamine receptor): > 2000 nM | Ki (D(2) dopamine receptor): > 5000 nM

O=C(CCCN1CCC(O)(c2ccc(Cl)cc2)CC1)c1ccc(F)cc1
Concentration (ng (g of tissue)-1) (Rattus norvegicus [21]): 160 | Concentration (ng (g of tissue)-1) (Rattus norvegicus [22]): 32 | Concentration (ng (g of tissue)-1) (Rattus norvegicus [23]): 0.587 | Concentration (ng (g of tissue)-1) (Rattus norvegicus [24]): 2870 | Concentration (ng (g of tissue)-1) (Rattus norvegicus [25]): 669 | Concentration (ng (g of tissue)-1) (Rattus norvegicus [26]): 552 | Concentration (ng (g of tissue)-1) (Rattus norvegicus [27]): 2190 | Concentration (ng (g of tissue)-1) (Rattus norvegicus [28]): 648 | Concentration (ng (g of tissue)-1) (Rattus norvegicus [29]): 1.18 | Concentration (ng (g of tissue)-1) (Rattus norvegicus [30]): 407 | Concentration (ng (g of tissue)-1) (Rattus norvegicus [31]): 986 | Concentration (ng (g of tissue)-1) (Rattus norvegicus [32]): 5140 | Concentration (ng (g of tissue)-1) (Rattus norvegicus [33]): 102 | Concentration (ng (g of tissue)-1) (Rattus norvegicus [34]): 180 | Concentration (ng (g of tissue)-1) (Rattus norvegicus [35]): 27 | Concentration (ng (g of tissue)-1) (Rattus norvegicus [36]): 657 | Concentration (ng (g of tissue)-1) (Rattus norvegicus [37]): 0.558 | Concentration (ng (g of tissue)-1) (Rattus norvegicus [38]): 1680

O[C@H](CCCN1CCN(c2ccccn2)CC1)c1ccc(F)cc1
Ki (Sigma 2 receptor [20]): 280 nM | Ki (D(3) dopamine receptor): 374 nM | Ki (D(2) dopamine receptor): 403 nM

O=C(CCCN1CCN(c2ccccn2)CC1)c1ccc(F)cc1 [AZAPERONE]
Ki (Sigma 2 receptor [20]): 51 nM

O[C@@H](CCCN1CCN(c2ccccn2)CC1)c1ccc(F)cc1
Ki (Sigma 2 receptor [20]): 38 nM | Ki (D(3) dopamine receptor): 125 nM | Ki (D(2) dopamine receptor): 101 nM

O[C@@H](CCCN1CCN(c2ncc(F)cn2)CC1)c1ccc(F)cc1 [BMY-14802]
Ki (Sigma 2 receptor [20]): 96 nM | Ki (D(3) dopamine receptor): > 2000 nM | Ki (D(2) dopamine receptor): 3350 nM

O[C@H](CCCN1CCC(O)(c2ccc(Cl)cc2)CC1)c1ccc(F)cc1
Concentration (ng (g of tissue)-1) (Rattus norvegicus [1]): 627 | Concentration (ng (g of tissue)-1) (Rattus norvegicus [2]): 3750 | Concentration (ng (g of tissue)-1) (Rattus norvegicus [3]): 1.81 | Ki (D(3) dopamine receptor): 1300 nM | Concentration (ng (g of tissue)-1) (Rattus norvegicus [4]): 1660 | Concentration (ng (g of tissue)-1) (Rattus norvegicus [5]): 0.651 | Concentration (ng (g of tissue)-1) (Rattus norvegicus [6]): 172 | Ki (Sigma 2 receptor [7]): 31 nM | Concentration (ng (g of tissue)-1) (Rattus norvegicus [8]): 397 | Concentration (ng (g of tissue)-1) (Rattus norvegicus [9]): 2440 | Concentration (ng (g of tissue)-1) (Rattus norvegicus [10]): 98 | Concentration (ng (g of tissue)-1) (Rattus norvegicus [11]): 18 | Concentration (ng (g of tissue)-1) (Rattus norvegicus [12]): 32 | Concentration (ng (g of tissue)-1) (Rattus norvegicus [13]): 0.616 | Concentration (ng (g of tissue)-1) (Rattus norvegicus [14]): 510 | Concentration (ng (g of tissue)-1) (Rattus norvegicus [15]): 154 | Concentration (ng (g of tissue)-1) (Rattus norvegicus [16]): 641 | Concentration (ng (g of tissue)-1) (Rattus norvegicus [17]): 492 | Concentration (ng (g of tissue)-1) (Rattus norvegicus [18]): 1780 | Concentration (ng (g of tissue)-1) (Rattus norvegicus [19]): 1020
